Experimental data published in paper PMC7823780 (Viruses, 2021).
Entries after “also recorded” stand apart in the source; their conditions may differ. Where two headings read alike, the source gives them in different places.

Legend:
[1] = Cytotoxicity assay, MTT, mock-infected Vero-76; type: cell-based; settings: Cercopithecus aethiops, mock-infected Vero-76 cells, mock-infected Vero-76, MTT; for CC50: value printed without *; for CC50 at 3 days: value marked *, after 3 * days
[2] = Cytotoxicity assay, MTT, mock-infected HeLa; type: cell-based; settings: human, mock-infected HeLa cells
[3] = Cytotoxicity assay, mock-infected LLC-MK2; type: cell-based; settings: Macaca mulatta, mock-infected LLC-MK2 cells, mock-infected LLC-MK2, MTT
[4] = Cytotoxicity assay, MTT, mock-infected BHK-21; type: cell-based; settings: Syrian hamster, mock-infected BHK-21 cells; mock-infected BHK-21, MTT
[5] = Cytotoxicity assay, MTT, mock-infected MDBK; type: cell-based; settings: bovine, mock-infected MDBK cells
[6] = tested on: EV-A71; experiment: Inhibition of EV-A71-induced cytopathogenicity in Vero-76 cells (MTT); type: cell-based, human enterovirus A71 strain BrCr
[7] = tested on: CV-B3; experiment: Plaque reduction assay CV-B3; type: cell-based, human enterovirus B; settings: Enterovirus B
[8] = tested on: CV-B4; experiment: Plaque reduction assay CV-B4; type: cell-based, human enterovirus B; settings: for EC50: Enterovirus B
[9] = tested on: CV-B5; experiment: Plaque reduction assay CV-B5; type: cell-based, human enterovirus B; settings: Enterovirus B
[10] = tested on: PV-1; experiment: microbe, parasite or virus in culture; type: cell-based; settings: Enterovirus C, read-out: EC50 PV-1
[11] = tested on: EV-D68; experiment: Inhibition of EV-D68-induced cytopathogenicity in HeLa cells (MTT); type: cell-based, human enterovirus D 68 strain Fermon; settings: for EC50: Enterovirus D, EVD68, m.o.i. 0.01
[12] = tested on: Echo9; experiment: Plaque reduction assay Echo9; type: cell-based, human enterovirus B; settings: Enterovirus B; 50% reduction of plaque number, LLC-MK2 cells
[13] = tested on: EV-A71; experiment: Protective effect on EV-A71-infected Vero-76 monolayers (cell morphology); type: cell-based
[14] = tested on: EV-A71; experiment: Apoptosis assay, Annexin V/PI flow cytometry, EV-A71-infected Vero-76; type: cell-based, human enterovirus A71 strain BrCr; settings: 96 h, m.o.i. 0.1
[15] = tested on: Caco-2 cells; experiment: Cell monolayer permeabilization (TEER); type: cell-based, human; settings: Caco-2 monolayers, 20 µM, all time points up to 48 h
[16] = tested on: EV-A71; experiment: Yield reduction assay; type: cell-based, human enterovirus A71 strain BrCr; settings: Vero-76, m.o.i. 0.1, 100, 20, 4 and 0.8 µM, 96 h
[17] = tested on: EV-A71; experiment: Virucidal activity assay; type: cell-based, human enterovirus A71 strain BrCr; settings: 20 µM, 4 or 37 °C, 1 h
[18] = tested on: EV-A71; experiment: Cell pretreatment assay; type: cell-based, human enterovirus A71 strain BrCr; settings: Vero-76 pre-incubated 2 h with 20 µM, then infected
[19] = tested on: EV-A71; experiment: Adsorption assay; type: cell-based, human enterovirus A71 strain BrCr; settings: Vero-76, m.o.i. 1, 20 µM, 2 h at 4 °C
[20] = tested on: EV-A71; experiment: Time-of-addition assay; type: cell-based, human enterovirus A71 strain BrCr; settings: Vero-76, m.o.i. 1, 20 µM
[21] = tested on: EV-A71; experiment: Penetration assay; type: cell-based, human enterovirus A71 strain BrCr; settings: Enterovirus A, EVA71, 1 h; Vero-76, 100–0.8 µM, 60 min at 37 °C; read-out: EC50 of inhibition of viral penetration
[22] = CVB3, 50% reduction of plaque number, read-out: EC50 CV-B3
[23] = CVB4, 50% reduction of plaque number, read-out: EC50 CV-B4
[24] = CVB5, 50% reduction of plaque number, read-out: EC50 CV-B5

| SMILES | CC50 [1] | CC50 at 4 days [2] | CC50 at 5 days [3] | CC50 [4] | CC50 [5] | EC50 [7, 22] | EC50 [8, 23] | EC50 [9, 24] | EC50 [10] | EC50 [11] | EC50 [12] | further results |
| --- | --- | --- | --- | --- | --- | --- | --- | --- | --- | --- | --- | --- |
| CC(C)(C)c1ccc(-c2nc3cc(Cl)ccc3[nH]2)cc1 [Compound 2b, 2-(4-(Tert-Butyl)phenyl)-5-Chloro-1H-Benzo[d]imidazole] | > 100 µM | 100 µM | 12 µM | > 100 µM | > 100 µM | 33 µM | 25.5 µM | 10 µM | 6 µM | > 100 µM | 4 µM | EC50 ([6]; 50% protection of Vero-76 cells from EV-A71-induced cytopathogenicity, MTT, m.o.i. 0.01): 3.5 µM; selectivity index ([6]; EV-A71, Vero-76): > 30; protection of Vero-76 monolayer from EV-A71 infection (morphology) ([13]; 20 µM and 80 µM, m.o.i. 0.1): protect cells from EV-A71 infection; cytotoxic effect on Vero-76 monolayer (morphology) ([13]; up to a concentration of 80 µM): no evident cytotoxic effects; viability at 20 µM ([14]; Enterovirus A, EVA71, Vero-76, 20 µM, read-out: viability of EV-A71-infected cells): 90%; viability at 80 µM ([14]; Enterovirus A, EVA71, Vero-76, 80 µM, read-out: viability of EV-A71-infected cells): 80%; necrotic cells among EV-A71-infected cells ([14]; Vero-76, 20 µM): 10%; necrotic cells among EV-A71-infected cells ([14]; Vero-76, 80 µM): 20%; TEER values versus control [15]: not significantly different from control values; also recorded: did not induce any significant change in permeability; reduction in EV-A71 titer (yield reduction) [16]: dose-dependent reduction; virucidal effect on EV-A71 infectivity [17]: failed to affect the EV-A71 infectivity; inhibition after cell pre-incubation [18]: no inhibition; virus titer in adsorption assay [19]: detectable reduction in the virus titer; effect by time of addition [20]: greatest effect when added along with the virus; EC50 [21]: 6.2 µM |
| CC(C)c1ccc(-c2nc3ccccc3[nH]2)cc1 [Compound 1a, 2-(4-Isopropylphenyl)-1H-Benzo[d]imidazole] | 60 µM | 9 µM | 6 µM | 36 µM | 65 µM | > 60 µM | > 60 µM | > 60 µM | 11.5 µM | > 9 µM | > 6 µM | CC50 at 3 days [1]: 24 µM |
| CC(C)c1ccc(-c2nc3cc(Cl)c(Cl)cc3[nH]2)cc1 [Compound 3a, 5,6-Dichloro-2-(4-Isopropylphenyl)-1H-Benzo[d]imidazole] | 25.5 µM | 8 µM | 7 µM | 8 µM | 2.5 µM | – | – | – | > 25.5 µM | > 8 µM | > 7 µM | CC50 at 3 days [1]: 8 µM; EC50 ([7]; CVB3, read-out: EC50 CV-B3): > 25.5 µM; EC50 ([8]; CVB4, read-out: EC50 CV-B4): > 25.5 µM; EC50 ([9]; CVB5, read-out: EC50 CV-B5): > 25.5 µM |
| CCOC(=O)/C=C/[C@H](C[C@@H]1CCNC1=O)NC(=O)[C@@H](CC(=O)[C@@H](NC(=O)c1cc(C)on1)C(C)C)Cc1ccc(F)cc1 [Rup, Rupintrivir, reference compound] | > 100 µM | – | – | – | – | – | – | – | 0.07 µM | – | – | – |
| CC(C)(C)c1ccc(-c2nc3ccccc3[nH]2)cc1 [Compound 1b, 2-(4-(Tert-Butyl)phenyl)-1H-Benzo[d]imidazole] | 46 µM | 9 µM | 6.5 µM | 20 µM | 9 µM | > 46 µM | > 46 µM | 7 µM | 9 µM | > 9 µM | > 6.5 µM | CC50 at 3 days [1]: 40 µM |
| CC(C)(C)c1ccc(-c2nc3cc(Cl)c(Cl)cc3[nH]2)cc1 [Compound 3b, 2-(4-(Tert-Butyl)phenyl)-5,6-Dichloro-1H-Benzo[d]imidazole] | 9 µM | 6.4 µM | 12 µM | 9 µM | 7 µM | > 9 µM | > 9 µM | 2 µM | – | > 6.4 µM | > 12 µM | – |
| CC(C)(C)c1ccc(-c2nc3cc(F)ccc3[nH]2)cc1 [Compound 4b, 2-(4-(Tert-Butyl)phenyl)-5-Fluoro-1H-Benzo[d]imidazole] | > 100 µM | > 100 µM | > 100 µM | > 100 µM | > 100 µM | > 100 µM | > 100 µM | > 100 µM | 20 µM | > 100 µM | > 100 µM | – |
| CC(C)c1ccc(-c2nc3cc(F)ccc3[nH]2)cc1 [Compound 4a, 5-Fluoro-2-(4-Isopropylphenyl)-1H-Benzo[d]imidazole] | > 100 µM | > 100 µM | 29.5 µM | > 100 µM | > 100 µM | > 100 µM | > 100 µM | > 100 µM | ≥ 100 µM | > 100 µM | > 29.5 µM | – |
| Cc1cc(CCCOc2c(C)cc(-c3noc(C(F)(F)F)n3)cc2C)on1 [Plc, Pleconaril, reference compound] | > 100 µM | – | > 100 µM | – | – | 2 ± 0.005 µM | – | 2 ± 0.5 µM | – | 0.3 µM | 0.1 µM | – |
| CC(C)c1ccc(-c2nc3cc(F)c(F)cc3[nH]2)cc1 [Compound 5a, 5,6-Difluoro-2-(4-Isopropylphenyl)-1H-Benzo[d]imidazole] | > 100 µM | > 100 µM | 100 µM | > 100 µM | > 100 µM | > 100 µM | > 100 µM | > 100 µM | 12 µM | > 100 µM | > 100 µM | EC50 EV-D68 ([11]; m.o.i. 0.01): not active |
| CC(C)c1ccc(-c2nc3cc(Cl)ccc3[nH]2)cc1 [Compound 2a, 5-Chloro-2-(4-Isopropylphenyl)-1H-Benzo[d]imidazole] | > 100 µM | 100 µM | > 100 µM | > 100 µM | 80 µM | 17 µM | ≥ 100 µM | 10 µM | 9 µM | > 100 µM | 8 µM | EC50 CV-B4 ([8]; 50% reduction of plaque number): No activity |
| CC(C)(C)c1ccc(-c2nc3cc(F)c(F)cc3[nH]2)cc1 [Compound 5b, 2-(4-(Tert-Butyl)phenyl)-5,6-Difluoro-1H-Benzo[d]imidazole] | > 100 µM | > 100 µM | > 100 µM | > 100 µM | > 100 µM | > 100 µM | > 100 µM | > 100 µM | 10 µM | 4 µM | > 100 µM | – |
| C[C@@]1(O)[C@H](O)[C@@H](CO)O[C@H]1n1ccc(N)nc1=O [NM 107, 2′-C-methylcytidine, reference compound] | > 100 µM | – | – | – | – | – | 29 µM | – | 6 µM | – | – | – |
